Test results from ChEMBL document CHEMBL1134950, “Retro-binding thrombin active site inhibitors: identification of an orally active inhibitor of thrombin catalytic activity” (Bioorg Med Chem Lett, 2002).
Each block holds one compound with its values, some of them ahead of it.

Columns and labels:
Plasminogen = Plasminogen (Homo sapiens, UniProt P00747); assay: Concentration required to inhibit Plasmin was determined
Mus musculus [1] = assay: Efficacy required to inhibit thrombin was determined after 1 hr of oral administration in the mouse thrombin challenge model; format: functional
Mus musculus [2] = assay: Efficacy required to inhibit thrombin was determined after 1 hr of intravenous administration in the mouse thrombin challenge model; format: functional
Mus musculus [3] = assay: Efficacy required to inhibit thrombin was determined after 10 min of intravenous administration in the mouse thrombin challenge model; format: functional
Serine protease 1 = target: T1, Serine protease 1 (Bos taurus, UniProt P00760); assay: Concentration required to inhibit Trypsin was determined
T1 sequence (P00760 whole entry): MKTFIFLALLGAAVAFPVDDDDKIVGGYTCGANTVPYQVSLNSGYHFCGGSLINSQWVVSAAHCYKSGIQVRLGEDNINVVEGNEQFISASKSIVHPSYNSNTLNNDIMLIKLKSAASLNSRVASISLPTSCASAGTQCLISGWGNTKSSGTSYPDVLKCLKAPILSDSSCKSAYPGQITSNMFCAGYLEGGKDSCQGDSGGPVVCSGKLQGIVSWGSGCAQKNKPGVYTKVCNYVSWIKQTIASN

Prothrombin [4] = target: T2, Prothrombin (Homo sapiens, UniProt P00734); assay: Concentration required to inhibit thrombin was determined
[5] = target: T3, Tissue-type plasminogen activator (Homo sapiens, UniProt P00750); assay: Concentration required to inhibit tissue-type plasminogen activator (t-PA) was determined
T3 sequence (P00750 whole entry): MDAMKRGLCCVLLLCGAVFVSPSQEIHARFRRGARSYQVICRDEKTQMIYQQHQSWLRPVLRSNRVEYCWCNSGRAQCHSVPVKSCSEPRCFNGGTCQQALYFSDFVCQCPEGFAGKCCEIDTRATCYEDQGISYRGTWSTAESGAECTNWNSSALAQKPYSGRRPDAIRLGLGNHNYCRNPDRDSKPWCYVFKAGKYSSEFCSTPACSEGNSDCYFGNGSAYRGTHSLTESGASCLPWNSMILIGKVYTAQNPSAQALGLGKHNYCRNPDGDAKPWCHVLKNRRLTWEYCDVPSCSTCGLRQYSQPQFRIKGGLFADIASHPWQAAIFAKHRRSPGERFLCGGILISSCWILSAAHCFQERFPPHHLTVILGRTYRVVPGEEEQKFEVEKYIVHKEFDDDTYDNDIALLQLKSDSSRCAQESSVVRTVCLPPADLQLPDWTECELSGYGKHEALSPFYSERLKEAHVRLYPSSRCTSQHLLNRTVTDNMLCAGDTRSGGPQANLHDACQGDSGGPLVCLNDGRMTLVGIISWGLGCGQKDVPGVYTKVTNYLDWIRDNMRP

Coagulation factor X = Coagulation factor X (Homo sapiens, UniProt P00742); assay: Concentration required to inhibit Coagulation factor X was determined
Chain of Coagulation factor X (P00742 41-179 limits assumed): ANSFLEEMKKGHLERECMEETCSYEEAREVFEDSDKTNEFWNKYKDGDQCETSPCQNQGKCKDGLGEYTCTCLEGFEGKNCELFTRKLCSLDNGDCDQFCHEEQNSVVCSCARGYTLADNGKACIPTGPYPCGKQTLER
Chain of Coagulation factor X (P00742 235-488 limits assumed): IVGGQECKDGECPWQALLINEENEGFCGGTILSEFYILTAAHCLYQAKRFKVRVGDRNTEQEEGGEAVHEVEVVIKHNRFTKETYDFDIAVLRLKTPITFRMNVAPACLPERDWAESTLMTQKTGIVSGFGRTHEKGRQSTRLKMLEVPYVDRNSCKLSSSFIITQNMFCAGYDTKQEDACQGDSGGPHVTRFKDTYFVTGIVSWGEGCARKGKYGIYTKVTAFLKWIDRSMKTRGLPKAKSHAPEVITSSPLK

Prothrombin [6] = target: T2, Prothrombin; assay: Concentration required to inhibit Human alpha-thrombin was determined
[7] = target: T3, Tissue-type plasminogen activator; assay: Concentration required to inhibit Tissue-type plasminogen activator (t-PA) was determined
Prothrombin [8] = target: T2, Prothrombin; assay: Inhibitory constant of thrombin catalytic activity was determined

Chain of Plasminogen (P00747 97-580 limits assumed): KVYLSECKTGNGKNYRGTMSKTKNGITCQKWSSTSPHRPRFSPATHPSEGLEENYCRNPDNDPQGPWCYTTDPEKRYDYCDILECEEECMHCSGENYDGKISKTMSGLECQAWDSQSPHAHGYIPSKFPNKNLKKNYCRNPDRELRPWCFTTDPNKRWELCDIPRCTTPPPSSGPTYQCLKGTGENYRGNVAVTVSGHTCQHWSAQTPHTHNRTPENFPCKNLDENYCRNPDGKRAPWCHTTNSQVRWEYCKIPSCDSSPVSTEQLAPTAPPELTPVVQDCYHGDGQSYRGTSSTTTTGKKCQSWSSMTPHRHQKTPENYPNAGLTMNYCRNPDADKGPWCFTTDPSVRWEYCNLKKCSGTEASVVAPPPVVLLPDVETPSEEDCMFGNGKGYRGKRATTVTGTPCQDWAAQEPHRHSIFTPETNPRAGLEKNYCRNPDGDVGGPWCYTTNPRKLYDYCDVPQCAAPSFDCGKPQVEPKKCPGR
Chain of Plasminogen (P00747 581-810 limits assumed): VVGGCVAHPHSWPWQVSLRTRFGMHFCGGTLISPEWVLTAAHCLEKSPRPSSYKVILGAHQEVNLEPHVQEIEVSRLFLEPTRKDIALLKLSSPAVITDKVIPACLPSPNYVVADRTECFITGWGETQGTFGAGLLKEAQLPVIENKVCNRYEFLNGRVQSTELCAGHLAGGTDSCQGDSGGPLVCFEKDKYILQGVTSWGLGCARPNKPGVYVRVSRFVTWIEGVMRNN

Structure (SMILES): CC(O)[C@@H](C(=O)N[C@H](C)c1ccccc1)N(C)C(=O)[C@H](Cc1ccc([N+](=O)[O-])cc1)NC(=O)CCCN=C(N)N (some centres not stated)
IC50 (Plasminogen): 230 nM | ED50 (Mus musculus [1]): 23 mg/kg | ED50 (Mus musculus [2]): 2.2 mg/kg | ED50 (Mus musculus [3]): 0.21 mg/kg | IC50 (Serine protease 1): 8 nM | IC50 (Prothrombin [4]): 8 nM | IC50 [5]: 700 nM | IC50 (Coagulation factor X): 4600 nM

Structure (SMILES): COC(=O)[C@@H](NC(=O)[C@@H](NC(=O)[C@H](Cc1ccc([N+](=O)[O-])cc1)NC(=O)CCCN=C(N)N)C(C)O)C1CCCCC1 (some centres not stated)
IC50 (Prothrombin [6]): 16 nM

Structure (SMILES): CC(O)[C@H](NC(=O)[C@H](Cc1ccc([N+](=O)[O-])cc1)NC(=O)CCCN=C(N)N)C(=O)N[C@@H](C)Cc1ccccc1 (some centres not stated)
IC50 (Prothrombin [6]): 260 nM

Structure (SMILES): CC(O)[C@H](NC(=O)[C@H](Cc1ccc([N+](=O)[O-])cc1)NC(=O)CCCN=C(N)N)C(N)=O (some centres not stated)
IC50 (Prothrombin [6]): 230000 nM

Structure (SMILES): CC(O)[C@H](NC(=O)[C@H](Cc1ccc([N+](=O)[O-])cc1)NC(=O)CCCN=C(N)N)C(=O)N[C@@H](C)c1ccccc1 (some centres not stated)
IC50 (Prothrombin [6]): 310 nM

Structure (SMILES): CN[C@H](Cc1ccccc1)C(=O)N1CCC[C@H]1C(=O)N[C@H](C=O)CCCNC(=N)N [EFEGATRAN]
IC50 (Plasminogen): 25000 nM | ED50 (Mus musculus [1]): 44 mg/kg | ED50 (Mus musculus [2]): 3 mg/kg | ED50 (Mus musculus [3]): 0.04 mg/kg | IC50 (Serine protease 1): 45 nM | IC50 [7]: 34000 nM | Ki (Prothrombin [8]): 7 nM | IC50 (Prothrombin [4]): 30 nM | IC50 (Coagulation factor X): 16000 nM

Next, values leading:

IC50 (Prothrombin [6]): 8.3 nM
Structure (SMILES): COC(=O)[C@@H](NC(=O)[C@@H](NC(=O)[C@H](Cc1ccc([N+](=O)[O-])cc1)NC(=O)CCCN=C(N)N)C(C)O)c1ccccc1 (some centres not stated)

IC50 (Prothrombin [6]): 72 nM
Structure (SMILES): CC(O)[C@H](NC(=O)[C@H](Cc1ccc([N+](=O)[O-])cc1)NC(=O)CCCN=C(N)N)C(=O)N[C@H](C)c1ccccc1 (some centres not stated)

IC50 (Prothrombin [6]): 55 nM
Structure (SMILES): CC(O)[C@H](NC(=O)[C@H](Cc1ccc([N+](=O)[O-])cc1)NC(=O)CCCN=C(N)N)C(=O)N[C@H](C(=O)O)C1CCCCC1 (some centres not stated)

IC50 (Prothrombin [6]): 19 nM
Structure (SMILES): CC(O)[C@H](NC(=O)[C@H](Cc1ccc([N+](=O)[O-])cc1)NC(=O)CCCN=C(N)N)C(=O)N[C@H](CO)C1CCCCC1 (some centres not stated)

IC50 (Prothrombin [6]): 43 nM
Structure (SMILES): CC(O)[C@H](NC(=O)[C@H](Cc1ccc([N+](=O)[O-])cc1)NC(=O)CCCN=C(N)N)C(=O)N[C@H](C)Cc1ccccc1 (some centres not stated)

IC50 (Prothrombin [6]): 19 nM
Structure (SMILES): CC(O)[C@H](NC(=O)[C@H](Cc1ccc([N+](=O)[O-])cc1)NC(=O)CCCN=C(N)N)C(=O)N[C@H](CO)c1ccccc1 (some centres not stated)
